Reference: patent publication US6737383B1, “Herbicidal oxadiazolidines” (priority 1999, dated 2004)

Columns and labels:
Alexandergrass = assay: Test D Alexandergrass; format: in vivo, Brachiaria plantaginea; conditions: Preemergence, 0 to 100 scale
How it was run: (§1)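 Greenhouse pots, seeds in sandy loam; compounds formulated in non-phytotoxic solvent with surfactant; preemergence treatments went on the soil surface within one day of planting. Injury rated visually 14 to 21 days after application on a 0 (none) to 100 (complete control) scale.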

bermuda-grass = assay: Test D bermudagrass; format: in vivo, Cynodon dactylon; conditions: Preemergence, 0 to 100 scale
How it was run: as §1

common ragweed = assay: Test D common ragweed; format: in vivo, Ambrosia elatior; conditions: Preemergence, 0 to 100 scale
How it was run: as §1

common groundsel = assay: Test D common groundsel; format: in vivo, Senecio vulgaris; conditions: Preemergence, 0 to 100 scale
How it was run: as §1

dallisgrass = assay: Test D dallisgrass; format: in vivo, Paspalum dilatatum; conditions: Preemergence, 0 to 100 scale
How it was run: as §1

guineagrass = assay: Test D guineagrass; format: in vivo, Panicum maximum; conditions: Preemergence, 0 to 100 scale
How it was run: as §1

itchgrass = assay: Test D itchgrass; format: in vivo, Rottboellia exaltata; conditions: Preemergence, 0 to 100 scale
How it was run: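 Scoring used a 0–100 visual injury scale, with 0 meaning no effect and 100 complete control, assessed 14–21 days after application alongside untreated pots. Preemergence treatments went onto sandy loam surfaces of separately potted seeds within a day of sowing.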

Johnson grass = assay: Test D Johnson grass; format: in vivo, Sorghum halepense; conditions: Preemergence, 0 to 100 scale
How it was run: as §1

large crabgrass = assay: Test D large crabgrass; format: in vivo, Digitaria sanguinalis; conditions: Preemergence, 0 to 100 scale
How it was run: as §1

pitted morningglory = assay: Test D pitted morningglory; format: in vivo, Ipomoea lacunosa; conditions: Preemergence, 0 to 100 scale
How it was run: as §1

Spanishneedles = assay: Test D Spanishneedles; format: in vivo, Bidens bipinnata; conditions: Preemergence, 0 to 100 scale, 0 no injury, 100 complete control
How it was run: as §1

surinam grass = assay: Test D surinam grass; format: in vivo, Brachiaria decumbens; conditions: Preemergence, 0 to 100 scale
How it was run: as §1

tall mallow = assay: Test D tall mallow; format: in vivo, Malva sylvestris; conditions: Preemergence, 0 to 100 scale
How it was run: as §1

Green foxtail [1] = assay: Test D green foxtail; format: in vivo; conditions: Rate 250 g/ha; Preemergence; 0 to 100 scale
How it was run: as §1

Green foxtail [2] = assay: Test D green foxtail; format: in vivo
How it was run: as §1

[3] = Rate 16 g/ha, 0 no injury, 100 complete control
[4] = Rate 32 g/ha, 0 no injury, 100 complete control
[5] = Rate 64 g/ha, 0 no injury, 100 complete control
[6] = Rate 125 g/ha, 0 no injury, 100 complete control
[7] = Rate 64 g/ha, Preemergence; 0 to 100 scale, 0 no injury, 100 complete control
[8] = Rate 125 g/ha, Preemergence; 0 to 100 scale, 0 no injury, 100 complete control

Compound: CCCn1c(=O)on(C(=O)N(c2ccc(Cl)cc2)C(C)C)c1=O [Compound 119]
- Plant response rating, Alexandergrass (Alexandergrass; [3]): 0
- Plant response rating, Alexandergrass (Alexandergrass; [4]): 50
- Plant response rating, Alexandergrass (Alexandergrass; [5]): 75
- Plant response rating, Alexandergrass (Alexandergrass; [6]): 98
- Plant response rating, Alexandergrass (Alexandergrass; Rate 250 g/ha): 100
- Plant response rating, Bermudagrass (bermuda-grass; [3]): 50
- Plant response rating, Bermudagrass (bermuda-grass; [4]): 65
- Plant response rating, Bermudagrass (bermuda-grass; [5]): 100
- Plant response rating, Bermudagrass (bermuda-grass; [6]): 100
- Plant response rating, Bermudagrass (bermuda-grass; Rate 250 g/ha): 100
- Plant response rating, C. ragweed (common ragweed; [3]): 0
- Plant response rating, C. ragweed (common ragweed; [4]): 0
- Plant response rating, C. ragweed (common ragweed; [5]): 0
- Plant response rating, C. ragweed (common ragweed; [6]): 0
- Plant response rating, C. ragweed (common ragweed; Rate 250 g/ha): 0
- Plant response rating, Com. groundsel (common groundsel; [3]): 85
- Plant response rating, Com. groundsel (common groundsel; [4]): 98
- Plant response rating, Com. groundsel (common groundsel; [5]): 100
- Plant response rating, Com. groundsel (common groundsel; [6]): 100
- Plant response rating, Com. groundsel (common groundsel; Rate 250 g/ha): 100
- Plant response rating, Dallisgrass (dallisgrass; [3]): 30
- Plant response rating, Dallisgrass (dallisgrass; [4]): 65
- Plant response rating, Dallisgrass (dallisgrass; [5]): 85
- Plant response rating, Dallisgrass (dallisgrass; [6]): 90
- Plant response rating, Dallisgrass (dallisgrass; Rate 250 g/ha): 98
- Plant response rating, Guineagrass (guineagrass; [3]): 65
- Plant response rating, Guineagrass (guineagrass; [4]): 75
- Plant response rating, Guineagrass (guineagrass; [5]): 85
- Plant response rating, Guineagrass (guineagrass; [6]): 98
- Plant response rating, Guineagrass (guineagrass; Rate 250 g/ha): 98
- Plant response rating, Itchgrass (itchgrass; [3]): 0
- Plant response rating, Itchgrass (itchgrass; [4]): 10
- Plant response rating, Itchgrass (itchgrass; [5]): 50
- Plant response rating, Itchgrass (itchgrass; [6]): 60
- Plant response rating, Itchgrass (itchgrass; Rate 250 g/ha): 75
- Plant response rating, Johnsongrass (Johnson grass; [3]): 0
- Plant response rating, Johnsongrass (Johnson grass; [4]): 0
- Plant response rating, Johnsongrass (Johnson grass; [5]): 65
- Plant response rating, Johnsongrass (Johnson grass; [6]): 75
- Plant response rating, Johnsongrass (Johnson grass; Rate 250 g/ha): 85
- Plant response rating, Large crabgrass (large crabgrass; [3]): 85
- Plant response rating, Large crabgrass (large crabgrass; [4]): 90
- Plant response rating, Large crabgrass (large crabgrass; [5]): 98
- Plant response rating, Large crabgrass (large crabgrass; [6]): 100
- Plant response rating, Large crabgrass (large crabgrass; Rate 250 g/ha): 100
- Plant response rating, P. morninglory (pitted morningglory; [3]): 0
- Plant response rating, P. morninglory (pitted morningglory; [4]): 0
- Plant response rating, P. morninglory (pitted morningglory; [5]): 0
- Plant response rating, P. morninglory (pitted morningglory; [6]): 0
- Plant response rating, P. morninglory (pitted morningglory; Rate 250 g/ha): 0
- Plant response rating, Spanishneedles (Spanishneedles; Rate 16 g/ha): 0
- Plant response rating, Spanishneedles (Spanishneedles; Rate 32 g/ha): 0
- Spanishneedles plant response rating (Spanishneedles; Rate 64 g/ha): 0
- Spanishneedles plant response rating (Spanishneedles; Rate 125 g/ha): 10
- Plant response rating, Surinam grass (surinam grass; [3]): 0
- Plant response rating, Surinam grass (surinam grass; [4]): 0
- Surinam grass plant response rating (surinam grass; [5]): 50
- Surinam grass plant response rating (surinam grass; [6]): 85
- Plant response rating, Surinam grass (surinam grass; Rate 250 g/ha): 98
- Plant response rating, Tall Mallow (tall mallow; [3]): 0
- Plant response rating, Tall Mallow (tall mallow; [4]): 0
- Tall Mallow plant response rating (tall mallow; [5]): 0
- Tall Mallow plant response rating (tall mallow; [6]): 0
- Plant response rating, Tall Mallow (tall mallow; Rate 250 g/ha): 0
- Plant response rating, Green foxtail (Green foxtail [1]): 100
- Plant response rating, Green foxtail (Green foxtail [2]; Preemergence; Rate 16 g/ha; 0 to 100 scale, 0 no injury, 100 complete control): 10
- Plant response rating, Green foxtail (Green foxtail [2]; Preemergence; Rate 32 g/ha; 0 to 100 scale, 0 no injury, 100 complete control): 75
- Plant response rating, Green foxtail (Green foxtail [2]; Rate 16 g/ha; Preemergence; 0 to 100 scale, 0 no injury, 100 complete control): 10
- Plant response rating, Green foxtail (Green foxtail [2]; Rate 32 g/ha; Preemergence; 0 to 100 scale, 0 no injury, 100 complete control): 100
- Green foxtail plant response rating (Green foxtail [2]; [7]): 90
- Plant response rating, Green foxtail (Green foxtail [2]; [7]): 90
- Green foxtail plant response rating (Green foxtail [2]; [8]): 100
- Plant response rating, Green foxtail (Green foxtail [2]; [8]): 100
- Plant response rating, Green foxtail (Green foxtail [2]; Rate 250 g/ha; Preemergence; 0 to 100 scale): 100
